Test results reported in PubChem BioAssay (NCI).
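Grown in 96-well plates, cells were treated for 48 hours with each compound at five concentrations. Insufficient inhibition: endpoint recorded as highest concentration tested. Here, GI50 denotes the concentration required for 50% inhibition of growth. At the TGI there is no net growth.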

What was measured:
Assay in all cases: DTP human tumour cell line panel, 48 h
UO-31 renal = tested on: UO-31 renal
NCI-H522 lung = tested on: NCI-H522 lung
SK-MEL-5 melanoma = tested on: SK-MEL-5 melanoma
DU-145 prostate = tested on: DU-145 prostate
UACC-62 melanoma = tested on: UACC-62 melanoma
HOP-62 NSCLC = tested on: HOP-62 NSCLC
UACC-257 melanoma = tested on: UACC-257 melanoma
NCI-H226 lung = tested on: NCI-H226 lung
SR leukemia = tested on: SR leukemia
MDA-MB-231 breast = tested on: MDA-MB-231 breast

Row | Compound | GI50 (UO-31 renal) | TGI (UO-31 renal) | TGI (NCI-H522 lung) | GI50 (SK-MEL-5 melanoma) | TGI (SK-MEL-5 melanoma) | GI50 (DU-145 prostate) | TGI (DU-145 prostate) | GI50 (UACC-62 melanoma) | TGI (UACC-62 melanoma) | GI50 (HOP-62 NSCLC) | TGI (HOP-62 NSCLC) | GI50 (UACC-257 melanoma) | TGI (UACC-257 melanoma) | GI50 (NCI-H226 lung) | TGI (NCI-H226 lung) | GI50 (SR leukemia) | TGI (SR leukemia) | GI50 (MDA-MB-231 breast) | TGI (MDA-MB-231 breast) | GI50 (NCI-H522 lung)
1 | CC1=Cc2cc3[n-]c(cc4nc(cc5[n-]c(cc1n2)cc5C)C(C)=C4CCC(=O)O)c(CCC(=O)O)c3C.[Pd+2] | 9.73 µM | 21.5 µM | > 26.7 µM | 7.73 µM | 19.6 µM | > 100 µM | > 100 µM | 5.29 µM | 34.1 µM | 17.7 µM | 34.3 µM | 10.8 µM | 29.3 µM | 8.95 µM | 17.8 µM | 2820 nM | 9.75 µM |  |  | 
2 | O=c1cc2ccccc2nn1-c1ccccc1Cl |  | 96.6 µM |  |  | > 100 µM |  |  |  | > 100 µM |  | > 100 µM |  | > 100 µM |  | > 100 µM |  |  |  |  | 
3 | O=C(O)c1cc2c(cn1)[nH]c1ccccc12 |  | > 100 µM | > 100 µM |  | > 100 µM |  |  |  | > 100 µM |  | > 100 µM |  | > 100 µM |  | > 100 µM |  | > 100 µM |  |  | 
4 | Nc1ccccc1C#C/C=C\C#Cc1ccc(Cl)cc1Cl | 14.2 µM | 40 µM | 35.4 µM | 6.63 µM | 21.2 µM | 13.5 µM | 37.8 µM | 14.5 µM | 31.7 µM | 16.6 µM | 32.8 µM | 18.3 µM | 40.9 µM | 19.2 µM | 39.5 µM |  |  | 15.8 µM | 35.6 µM | 14.7 µM
5 | COC(=O)C1=C(O)C(O)=C(C(=O)OC)C1 |  | > 100 µM | > 100 µM |  | > 100 µM |  |  |  | > 100 µM |  | > 100 µM |  | > 100 µM |  | > 100 µM |  |  |  |  | 
6 | Cc1c2cc[nH]c(=O)c2cc2c(=O)c3cnccc3[nH]c12 |  | > 100 µM | > 100 µM |  | > 100 µM |  |  |  | > 100 µM |  | > 100 µM |  | > 100 µM |  | > 100 µM |  |  |  |  | 
7 | O=C(c1ccccc1)c1c(C(=O)c2ccccc2)c(-c2ccccc2)c2c(-c3ccccc3)sc(-c3ccccc3)c2c1-c1ccccc1 |  | > 100 µM | > 100 µM |  | > 100 µM |  |  |  | > 100 µM |  | > 100 µM |  | > 100 µM |  | > 100 µM |  |  |  |  | 
8 | C/C=C(\C)C(=O)O[C@H]1C=CC(=O)O[C@H]1CNC(=O)[C@H](C)O | 16.9 µM | 33.4 µM | 31 µM | 17 µM | 31.3 µM | 31.7 µM | > 100 µM | 16.1 µM | 30.5 µM | 23.9 µM | 54 µM | 17.1 µM | 37.6 µM | 17.9 µM | 46.7 µM |  |  | 19.1 µM | 36.3 µM | 11.6 µM
9 | CC(C)(O)C1OCC(C2CCC3(C)C4=CCC5C(C)(C)C(O)CCC5(C)C4CCC23C)CC1O (stereo not given) |  | 41.8 µM | 23.6 µM |  | 27.8 µM |  | 31.1 µM |  | 29.5 µM |  |  |  | 39.3 µM |  | 27.9 µM |  |  |  | 28.6 µM | 
10 | CC1NOC(=O)C1N=Nc1ccccc1Cl (stereo not given) |  | 34.5 µM | 34.2 µM |  | 32.9 µM |  |  |  | > 100 µM |  | > 100 µM |  | 47 µM |  |  |  |  |  |  | 
11 | O=C1c2ccccc2-c2c1c1ccccc1c(=O)n2CCNCCNCCn1c2c(c3ccccc3c1=O)C(=O)c1ccccc1-2 | 0.519 µM |  |  | 0.957 µM | 19.9 µM | 0.179 µM | 4.61 µM | 0.338 µM | 8.79 µM | 0.0288 µM | 4.5 µM | 11.3 µM | > 48.4 µM | 0.22 µM | 18.9 µM |  |  | 0.432 µM | 5.72 µM | 2.28 µM
12 | O=C1OC2(c3ccccc3Oc3ccccc32)c2ccccc21 |  | > 100 µM | > 100 µM |  | > 100 µM |  |  |  | > 100 µM |  | > 100 µM |  | > 100 µM |  | > 100 µM |  | > 100 µM |  |  | 
13 | COc1cc2c(/C=C3/C(=O)Nc4ccccc43)c(Cl)n(Cc3ccccc3[N+](=O)[O-])c2cc1C | 6.29 µM | 25.1 µM | 35.3 µM | 5.02 µM | 19.6 µM | 6.74 µM | > 100 µM | 6.69 µM | 27 µM | 10.7 µM | 27.6 µM | 17.7 µM | 85.5 µM | 12.7 µM | 38.4 µM |  |  | 3.85 µM | 31.3 µM | 12.2 µM
14 | N=C(N)CCCCCCCCC(=N)N | 18.2 µM | > 100 µM | > 100 µM | 38.2 µM | > 100 µM | 20.8 µM | > 100 µM | 64.8 µM | > 100 µM | 30.9 µM | > 100 µM | > 100 µM | > 100 µM | 15.7 µM | > 100 µM |  |  | 63.3 µM | > 100 µM | 41.4 µM
15 | CCOC(=O)C(C)c1cc(C2(C)OCCO2)c(C)o1 (stereo not given) |  | > 100 µM |  |  | > 100 µM |  |  |  | > 100 µM |  | > 100 µM |  |  |  |  |  |  |  |  | 
16 | COC(=O)c1ccc(N=NN(C)CO)cc1 |  | > 100 µM | > 100 µM |  | > 100 µM |  |  |  | > 100 µM |  | > 100 µM |  | > 100 µM |  | > 100 µM |  | > 100 µM |  |  | 
17 | N.N.NC(CS)C(=O)[O-].NC(CS)C(=O)[O-].[Pt+4] (stereo not given) | > 5 µM | > 5 µM | > 50 µM | > 50 µM | > 50 µM |  |  | > 50 µM | > 50 µM |  |  | > 50 µM | > 50 µM | > 50 µM | > 50 µM | > 50000 nM | > 50 µM |  |  | > 50 µM
18 | COC(=O)c1nc(NC#N)[nH]c(=O)c1C |  | > 84.2 µM | > 100 µM |  | > 100 µM |  |  |  | > 100 µM |  | > 100 µM |  | > 100 µM |  |  |  |  |  |  | 
19 | CS(=O)c1ccc(COP(N)(=O)N(CCCl)CCCl)cc1 (stereo not given) |  | > 100 µM | > 100 µM |  | > 100 µM |  |  |  | > 100 µM |  | > 100 µM |  | > 100 µM |  | > 100 µM |  | > 100 µM |  |  | 
20 | Nc1c(-c2nc3ccccc3[nH]2)sc(=S)n1-c1ccccc1 |  | > 100 µM | > 100 µM |  | > 100 µM |  |  |  | 70 µM |  | > 100 µM |  | > 100 µM |  | > 100 µM |  | 86.5 µM |  |  | 
